Reference: patent US11076594B2, “Pyrazolone compound or salt thereof, preparation method therefor, herbicide composition and use thereof” (QINGDAO KINGAGROOT CHEMICAL COMPOUNDS CO., LTD., priority 2015, dated 2021)

Tests used:
Format in all cases: in vivo
Settings in all cases: post-emergence spray at 4-5 leaf stage, 250 g/ha active ingredient with 450 kg/ha water, rated after 3 weeks in greenhouse
[1] = system: corn; assay: post-emergence stage experiment, crop (Table 1)
Method: (§1) The activity level standard of harmful plant destruction (i.e. growth control rate) is as follows: The above described growth control rate is fresh weight control rate. Monocotyledonous and dicotyledonous weed seeds and main crop seeds (i.e. wheat, corn, rice, soybean, cotton, oilseed, millet and sorghum.) were put into a plastic pot loaded with soil. Then covered with 0.5-2 cm soil, the seeds were allowed to grow in good greenhouse environment. The test plants were treated at 4-5 leaf stage 2-3 weeks after sowing. The test compounds of the invention were dissolved with acetone respectively, then added with 80 tween and diluted by certain amount of water to certain concentration. The solution was sprayed to the plants with a sprayer. Then the plants were cultured for 3 weeks in the greenhouse.

[2] = system: wheat; assay: post-emergence stage experiment, crop (Table 1)
Method: as §1

[3] = system: rice; assay: post-emergence stage experiment, crop (Table 1)
Method: as §1

[4] = system: Indian mallow; assay: weed control effect in post-emergence stage (Table 1); design: key: Level 10: completely dead; Level 9: above 95% growth control rate; Level 8: above 90% growth control rate; Level 7: above 80% growth control rate; Level 6: above 70% growth control rate; Level 5: above 60% growth control rate; Level 4: above 50% growth control rate; Level 3: above 20% growth control rate; Level 2: 5%-20% growth control rate; Level 1: below 5% growth control rate
Method: as §1

[5] = system: foxtail; assay: as above; design: key: Level 10: completely dead; Level 9: above 95% growth control rate; Level 8: above 90% growth control rate; Level 7: above 80% growth control rate; Level 6: above 70% growth control rate; Level 5: above 60% growth control rate; Level 4: above 50% growth control rate; Level 3: above 20% growth control rate; Level 2: 5%-20% growth control rate; Level 1: below 5% growth control rate
Method: as §1

[6] = system: bidens bipinnata; assay: as above; design: key: Level 10: completely dead; Level 9: above 95% growth control rate; Level 8: above 90% growth control rate; Level 7: above 80% growth control rate; Level 6: above 70% growth control rate; Level 5: above 60% growth control rate; Level 4: above 50% growth control rate; Level 3: above 20% growth control rate; Level 2: 5%-20% growth control rate; Level 1: below 5% growth control rate
Method: as §1

[7] = system: crab grass; assay: as above; design: key: Level 10: completely dead; Level 9: above 95% growth control rate; Level 8: above 90% growth control rate; Level 7: above 80% growth control rate; Level 6: above 70% growth control rate; Level 5: above 60% growth control rate; Level 4: above 50% growth control rate; Level 3: above 20% growth control rate; Level 2: 5%-20% growth control rate; Level 1: below 5% growth control rate
Method: as §1

[8] = system: echinochloa; assay: as above; design: key: Level 10: completely dead; Level 9: above 95% growth control rate; Level 8: above 90% growth control rate; Level 7: above 80% growth control rate; Level 6: above 70% growth control rate; Level 5: above 60% growth control rate; Level 4: above 50% growth control rate; Level 3: above 20% growth control rate; Level 2: 5%-20% growth control rate; Level 1: below 5% growth control rate
Method: as §1

[9] = system: rorippa indica; assay: as above; design: key: Level 10: completely dead; Level 9: above 95% growth control rate; Level 8: above 90% growth control rate; Level 7: above 80% growth control rate; Level 6: above 70% growth control rate; Level 5: above 60% growth control rate; Level 4: above 50% growth control rate; Level 3: above 20% growth control rate; Level 2: 5%-20% growth control rate; Level 1: below 5% growth control rate
Method: as §1

SMILES | effect on crop, Corn (level) [1] | effect on crop, Wheat (level) [2] | effect on crop, Rice (level) [3] | weed control effect, Indian mallow (level) [4] | weed control effect, Green foxtail (level) [5] | weed control effect, Bidens bipinnata (level) [6] | weed control effect, Crab grass (level) [7] | weed control effect, Echinochloa (level) [8] | weed control effect, Rorippa indica (level) [9]
Cn1cc(C(=O)Oc2c(C(=O)c3ccc(C(F)(F)F)c(N4CCCC4=O)c3Cl)cnn2C)cn1 [Compound 017] | 4 (Level 4: above 50% growth control rate) | 1 (Level 1: below 5% growth control rate) | 7 (Level 7: above 80% growth control rate) | 10 | 10 | 5 (Level 5: above 60% growth control rate) | 10 | 6 (Level 6: above 70% growth control rate) | –
Cn1nc(C2CC2)c(C(=O)c2ccc(C(F)(F)F)c(N3CCCCCC3=O)c2Cl)c1O [Compound 059] | 1 (Level 1: below 5% growth control rate) | 2 (Level 2: 5%-20% growth control rate) | 3 (Level 3: above 20% growth control rate) | 10 | 9 (Level 9: above 95% growth control rate) | – | 5 (Level 5: above 60% growth control rate) | 6 (Level 6: above 70% growth control rate) | 10
Cc1nn(C)cc1C(=O)Oc1c(C(=O)c2ccc(C(F)(F)F)c(N3CCCCCC3=O)c2Cl)c(C2CC2)nn1C [Compound 062] | 1 (Level 1: below 5% growth control rate) | 3 (Level 3: above 20% growth control rate) | 5 (Level 5: above 60% growth control rate) | 10 | 3 (Level 3: above 20% growth control rate) | – | 8 (Level 8: above 90% growth control rate) | 7 (Level 7: above 80% growth control rate) | 10
Cn1cc(C(=O)Oc2c(C(=O)c3ccc(C(F)(F)F)c(-n4cccn4)c3Cl)cnn2C)cn1 [Compound 066] | 3 (Level 3: above 20% growth control rate) | 0 | 3 (Level 3: above 20% growth control rate) | 10 | 10 | 6 (Level 6: above 70% growth control rate) | 6 (Level 6: above 70% growth control rate) | 6 (Level 6: above 70% growth control rate) | –
Cc1nn(C)cc1C(=O)Oc1c(C(=O)c2ccc(C(F)(F)F)c(-n3cccn3)c2Cl)c(C2CC2)nn1C [Compound 075] | 3 (Level 3: above 20% growth control rate) | 2 (Level 2: 5%-20% growth control rate) | 7 (Level 7: above 80% growth control rate) | 10 | 10 | – | 4 (Level 4: above 50% growth control rate) | 6 (Level 6: above 70% growth control rate) | 10
Cn1cc(C(=O)Oc2c(C(=O)c3ccc(C(F)(F)F)c(-n4cccn4)c3Cl)c(C3CC3)nn2C)cn1 [Compound 076] | 4 (Level 4: above 50% growth control rate) | 2 (Level 2: 5%-20% growth control rate) | 9 (Level 9: above 95% growth control rate) | 10 | 10 | 4 (Level 4: above 50% growth control rate) | 5 (Level 5: above 60% growth control rate) | 7 (Level 7: above 80% growth control rate) | –
Cc1cnn(-c2c(C(F)(F)F)ccc(C(=O)c3cnn(C)c3OC(=O)c3cnn(C)c3)c2Cl)c1 [Compound 083] | 4 (Level 4: above 50% growth control rate) | 0 | 2 (Level 2: 5%-20% growth control rate) | 10 | 8 (Level 8: above 90% growth control rate) | 5 (Level 5: above 60% growth control rate) | 6 (Level 6: above 70% growth control rate) | 6 (Level 6: above 70% growth control rate) | –
Cc1cnn(-c2c(C(F)(F)F)ccc(C(=O)c3c(C)nn(C)c3O)c2Cl)c1 [Compound 084] | – | 0 | 7 (Level 7: above 80% growth control rate) | 10 | 10 | 10 | 8 (Level 8: above 90% growth control rate) | 10 | 9 (Level 9: above 95% growth control rate)
Cc1cnn(-c2c(C(F)(F)F)ccc(C(=O)c3c(C)nn(C)c3OC(=O)c3cnn(C)c3)c2Cl)c1 [Compound 087] | 4 (Level 4: above 50% growth control rate) | 0 | 6 (Level 6: above 70% growth control rate) | 10 | 10 | 5 (Level 5: above 60% growth control rate) | 9 (Level 9: above 95% growth control rate) | 6 (Level 6: above 70% growth control rate) | –
Cc1cc(C)n(-c2c(C(F)(F)F)ccc(C(=O)c3c(C)nn(C)c3O)c2Cl)n1 [Compound 093] | – | 0 | 0 | 5 (Level 5: above 60% growth control rate) | 2 (Level 2: 5%-20% growth control rate) | 5 (Level 5: above 60% growth control rate) | 2 (Level 2: 5%-20% growth control rate) | 5 (Level 5: above 60% growth control rate) | 0
